According to PubChem BioAssay (NCI):
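Abbreviation: GI50, concentration required for 50% inhibition of growth. Definition used: TGI = concentration required for complete inhibition of growth.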

Experiments:
Experiment in all cases: DTP human tumour cell line panel, 384-well format
[1] = test system: UACC-257 melanoma
[2] = test system: K-562 leukemia
[3] = test system: HS 578T breast
[4] = test system: OVCAR-8 ovarian
[5] = test system: MDA-MB-468 breast
[6] = test system: SF-539 CNS
[7] = test system: BT-549 breast
[8] = test system: MALME-3M melanoma
[9] = test system: UO-31 renal
[10] = test system: NCI-H23 lung
[11] = test system: UACC-62 melanoma
[12] = test system: EKVX NSCLC
[13] = test system: RXF 393 renal
[14] = test system: NCI-H226 lung
[15] = test system: SF-268 CNS
[16] = test system: RPMI-8226 leukemia
[17] = test system: NCI-H460 NSCLC
[18] = test system: U251 glioblastoma
[19] = test system: CCRF-CEM leukemia
[20] = test system: NCI/ADR-RES ovarian
[21] = test system: M14 melanoma
[22] = test system: NCI-H322M lung
[23] = test system: LOX IMVI melanoma
[24] = test system: DU-145 prostate
[25] = test system: ACHN renal
[26] = test system: HOP-62 NSCLC
[27] = test system: NCI-H522 lung
[28] = test system: IGROV1 ovarian
[29] = test system: SK-MEL-28 melanoma
[30] = test system: TK-10 renal
[31] = test system: OVCAR-3 ovarian
[32] = test system: SNB-75 CNS
[33] = test system: SW-620 colon
[34] = test system: 786-0 renal
[35] = test system: A549 NSCLC
[36] = test system: OVCAR-4 ovarian
[37] = test system: SK-MEL-5 melanoma
[38] = test system: SNB-19 CNS
[39] = test system: SN12C renal
[40] = test system: A498 renal
[41] = test system: HL-60(TB) leukemia
[42] = test system: HCC-2998 colon
[43] = test system: COLO 205 colon
[44] = test system: HCT-15 colon
[45] = test system: T-47D breast
[46] = test system: HT29 colon
[47] = test system: CAKI-1 renal
[48] = test system: SK-OV-3 ovarian
[49] = test system: KM12 colon
[50] = test system: MDA-MB-435 melanoma
[51] = test system: MCF7 breast
[52] = test system: PC-3 prostate
[53] = test system: SF-295 CNS
[54] = test system: OVCAR-5 ovarian

CCS(=O)(=O)c1cccc(-c2cc(C(=O)NC3CCN(C)CC3)c(C)c3[nH]c4ncc(C)cc4c23)c1
GI50 [1]: 139 nM
TGI [1]: 935 nM
GI50 [2]: 32.2 nM
TGI [2]: 761 nM
GI50 [3]: 58.1 nM
TGI [3]: 216 nM
GI50 [4]: 309 nM
TGI [4]: 1490 nM
GI50 [5]: 17.9 nM
TGI [5]: 88.6 nM
GI50 [6]: 59 nM
TGI [6]: 233 nM
GI50 [7]: 144 nM
TGI [7]: 326 nM
GI50 [8]: 240 nM
TGI [8]: 1460 nM
GI50 [9]: 5480 nM
TGI [9]: 19100 nM
GI50 [10]: 66.9 nM
TGI [10]: 343 nM
GI50 [11]: 158 nM
TGI [11]: 1120 nM
GI50 [12]: 270 nM
TGI [12]: 1930 nM
GI50 [13]: 112 nM
TGI [13]: 384 nM
GI50 [14]: 39.2 nM
TGI [14]: 441 nM
GI50 [15]: 17.8 nM
TGI [15]: 91.1 nM
GI50 [16]: 49.7 nM
TGI [16]: 226 nM
GI50 [17]: 36.2 nM
TGI [17]: 1080 nM
GI50 [18]: 202 nM
TGI [18]: 902 nM
TGI [19]: 12.1 nM
GI50 [20]: > 100000 nM
TGI [20]: > 100000 nM
GI50 [21]: 437 nM
TGI [21]: 2040 nM
GI50 [22]: 541 nM
TGI [22]: 2440 nM
GI50 [23]: 84.9 nM
TGI [23]: 229 nM
GI50 [24]: 343 nM
TGI [24]: 4340 nM
GI50 [25]: 2370 nM
TGI [25]: 13200 nM
GI50 [26]: 161 nM
TGI [26]: 1290 nM
GI50 [27]: 19.4 nM
TGI [27]: 126 nM
GI50 [28]: 40.8 nM
TGI [28]: 230 nM
GI50 [29]: 279 nM
TGI [29]: 1300 nM
GI50 [30]: 1740 nM
TGI [30]: 5520 nM
GI50 [31]: 103 nM
TGI [31]: 298 nM
GI50 [32]: 101 nM
TGI [32]: 226 nM
GI50 [33]: 181 nM
TGI [33]: 1250 nM
GI50 [34]: 1000 nM
TGI [34]: 2460 nM
GI50 [35]: 58 nM
TGI [35]: 1200 nM
GI50 [36]: 953 nM
TGI [36]: 5040 nM
GI50 [37]: 264 nM
TGI [37]: 1680 nM
GI50 [38]: 192 nM
TGI [38]: 1390 nM
GI50 [39]: 51.5 nM
TGI [39]: 267 nM
GI50 [40]: 1400 nM
TGI [40]: 5500 nM
GI50 [41]: 31.8 nM
TGI [41]: 126 nM
GI50 [42]: 168 nM
TGI [42]: 1240 nM
GI50 [43]: 18.3 nM
TGI [43]: 98.1 nM
GI50 [44]: 3960 nM
TGI [44]: 19800 nM
GI50 [45]: 59.2 nM
TGI [45]: 270 nM
GI50 [46]: 215 nM
TGI [46]: 10500 nM
GI50 [47]: 328 nM
TGI [47]: 5340 nM
GI50 [48]: 135 nM
TGI [48]: 869 nM
GI50 [49]: 24.2 nM
TGI [49]: 1110 nM
GI50 [50]: 366 nM
TGI [50]: 1900 nM
GI50 [51]: 12.6 nM
TGI [51]: 2130 nM
GI50 [52]: 219 nM
TGI [52]: 2710 nM
GI50 [53]: 399 nM
TGI [53]: 3610 nM
GI50 [54]: 185 nM
TGI [54]: 827 nM
